Data published in the CheMixHub ionic liquid set.
± gives the uncertainty stated by the source.

Assay: xn = mol fraction of the nth substance listed

CC[n+]1ccn(C)c1.O=S(=O)([O-])O + Cc1ncc(C[n+]2csc(CCO)c2C)c(N)n1.Cl.[Cl-] + O
viscosity [mPa·s], 100 kPa
Settings | 293.15 K | 298.15 K | 303.15 K | 308.15 K | 313.15 K | 318.15 K
x2 = 0, x1 = 0.0009002 | 1.05 ± 0.1 | 0.94 ± 0.1 | 0.84 ± 0.1 | 0.76 ± 0.1 | 0.69 ± 0.1 | 0.65 ± 0.1
x2 = 0, x1 = 0.001799 | 1.07 ± 0.1 | 0.95 ± 0.1 | 0.85 ± 0.1 | 0.77 ± 0.1 | 0.7 ± 0.1 | 0.64 ± 0.1
x2 = 0, x1 = 0.002696 | 1.08 ± 0.1 | 0.96 ± 0.1 | 0.86 ± 0.1 | 0.78 ± 0.1 | 0.71 ± 0.1 | 0.64 ± 0.1
x2 = 0.0002717, x1 = 0.0008999 | 1.06 ± 0.1 | 0.95 ± 0.1 | 0.85 ± 0.1 | 0.77 ± 0.1 | 0.7 ± 0.1 | 0.66 ± 0.1
x2 = 0.0002739, x1 = 0.001798 | 1.08 ± 0.1 | 0.96 ± 0.1 | 0.86 ± 0.1 | 0.78 ± 0.1 | 0.71 ± 0.1 | 0.65 ± 0.1
x2 = 0.0002783, x1 = 0.002695 | 1.09 ± 0.1 | 0.97 ± 0.1 | 0.87 ± 0.1 | 0.79 ± 0.1 | 0.72 ± 0.1 | 0.65 ± 0.1
x2 = 0.0005451, x1 = 0.0008997 | 1.07 ± 0.1 | 0.96 ± 0.1 | 0.85 ± 0.1 | 0.78 ± 0.1 | 0.71 ± 0.1 | 0.67 ± 0.1
x2 = 0.0005496, x1 = 0.001798 | 1.09 ± 0.1 | 0.97 ± 0.1 | 0.87 ± 0.1 | 0.79 ± 0.1 | 0.72 ± 0.1 | 0.66 ± 0.1
x2 = 0.0005575, x1 = 0.002694 | 1.1 ± 0.1 | 0.98 ± 0.1 | 0.88 ± 0.1 | 0.8 ± 0.1 | 0.73 ± 0.1 | 0.66 ± 0.1
x2 = 0.0008249, x1 = 0.001797 | 1.1 ± 0.1 | 0.98 ± 0.1 | 0.88 ± 0.1 | 0.8 ± 0.1 | 0.73 ± 0.1 | 0.67 ± 0.1
x2 = 0.0008327, x1 = 0.002693 | 1.11 ± 0.1 | 0.99 ± 0.1 | 0.89 ± 0.1 | 0.81 ± 0.1 | 0.73 ± 0.1 | 0.67 ± 0.1
x2 = 0.0008356, x1 = 0.0008994 | 1.08 ± 0.1 | 0.97 ± 0.1 | 0.86 ± 0.1 | 0.79 ± 0.1 | 0.72 ± 0.1 | 0.68 ± 0.1
x2 = 0.00109, x1 = 0.0008992 | 1.09 ± 0.1 | 0.98 ± 0.1 | 0.87 ± 0.1 | 0.8 ± 0.1 | 0.73 ± 0.1 | 0.68 ± 0.1
x2 = 0.001102, x1 = 0.001797 | 1.11 ± 0.1 | 0.98 ± 0.1 | 0.89 ± 0.1 | 0.81 ± 0.1 | 0.74 ± 0.1 | 0.68 ± 0.1
x2 = 0.001112, x1 = 0.002693 | 1.12 ± 0.1 | 1 ± 0.1 | 0.9 ± 0.1 | 0.81 ± 0.1 | 0.74 ± 0.1 | 0.68 ± 0.1
x2 = 0.001362, x1 = 0.000899 | 1.1 ± 0.1 | 0.99 ± 0.1 | 0.88 ± 0.1 | 0.8 ± 0.1 | 0.74 ± 0.1 | 0.69 ± 0.1
x2 = 0.001376, x1 = 0.001796 | 1.11 ± 0.1 | 0.99 ± 0.1 | 0.9 ± 0.1 | 0.82 ± 0.1 | 0.75 ± 0.1 | 0.69 ± 0.1
x2 = 0.001389, x1 = 0.002692 | 1.13 ± 0.1 | 1.01 ± 0.1 | 0.91 ± 0.1 | 0.82 ± 0.1 | 0.75 ± 0.1 | 0.69 ± 0.1
x2 = 0.001634, x1 = 0.0008987 | 1.1 ± 0.1 | 1 ± 0.1 | 0.89 ± 0.11 | 0.81 ± 0.1 | 0.75 ± 0.1 | 0.7 ± 0.11
x2 = 0.001651, x1 = 0.001796 | 1.12 ± 0.1 | 1 ± 0.1 | 0.91 ± 0.1 | 0.83 ± 0.1 | 0.76 ± 0.1 | 0.7 ± 0.1
x2 = 0.001665, x1 = 0.002691 | 1.14 ± 0.1 | 1.02 ± 0.1 | 0.92 ± 0.1 | 0.83 ± 0.1 | 0.76 ± 0.1 | 0.7 ± 0.1
x2 = 0.001907, x1 = 0.0008985 | 1.11 ± 0.1 | 1.01 ± 0.1 | 0.9 ± 0.1 | 0.82 ± 0.1 | 0.76 ± 0.1 | 0.71 ± 0.1
x2 = 0.001926, x1 = 0.001795 | 1.13 ± 0.1 | 1.01 ± 0.1 | 0.92 ± 0.1 | 0.84 ± 0.1 | 0.77 ± 0.1 | 0.71 ± 0.1
x2 = 0.001943, x1 = 0.00269 | 1.15 ± 0.1 | 1.03 ± 0.1 | 0.93 ± 0.1 | 0.84 ± 0.1 | 0.77 ± 0.1 | 0.71 ± 0.1

CCCC[n+]1ccn(C)c1.F[P-](F)(F)(F)(F)F + ClC(Cl)Cl
298.15 K, 101 kPa
Settings | electrical conductivity [S/m] | viscosity [mPa·s]
x2 = 0 | 0.157 ± 0.019 | 260
x2 = 0.0857 | 0.199 ± 0.024 | 200
x2 = 0.1741 | 0.253 ± 0.03 | 144 ± 63
x2 = 0.2614 | 0.319 ± 0.038 | 103 ± 31
x2 = 0.3625 | 0.411 ± 0.049 | 68.4 ± 9.1
x2 = 0.4608 | 0.519 ± 0.062 | 43 ± 4.3
x2 = 0.5633 | 0.644 ± 0.077 | 25 ± 2.5
x2 = 0.6683 | 0.726 ± 0.087 | 13.1 ± 1.4
x2 = 0.7326 | 0.729 ± 0.087 | 10 ± 1.1

CCCC[n+]1ccn(C)c1.O=S(=O)([N-]S(=O)(=O)C(F)(F)F)C(F)(F)F + ClCCl
Settings | viscosity [mPa·s]
298 K, 101 kPa, x2 = 0 | 50.4 ± 1.9

CC#N + Cn1cc[n+](CCCN)c1.F[B-](F)(F)F
101 kPa, x2 = 0
Settings | viscosity [mPa·s]
288.15 K | 0.439 ± 0.06
293.15 K | 0.403 ± 0.06
298.15 K | 0.371 ± 0.06
303.15 K | 0.345 ± 0.06
308.15 K | 0.322 ± 0.06
313.15 K | 0.3 ± 0.06
318.15 K | 0.282 ± 0.06
323.15 K | 0.265 ± 0.06

CCCC[n+]1ccn(C)c1.O=S(=O)([N-]S(=O)(=O)C(F)(F)F)C(F)(F)F + N
Settings | viscosity [mPa·s]
313.2 K, 101 kPa, x1 = 1 | 27.3 ± 2.9

CCCC[n+]1ccn(C)c1.F[P-](F)(F)(F)(F)F + NCCO
101 kPa
Settings | electrical conductivity [S/m] | viscosity [mPa·s]
288.15 K, x2 = 0.8022 | 0.1847 ± 0.0001 | 45 ± 18
288.15 K, x2 = 0.9028 | 0.1368 ± 0.0001 | 36 ± 14
293.15 K, x2 = 0.3052 | 0.222 ± 0.001 | 103 ± 41
293.15 K, x2 = 0.387 | 0.236 ± 0.001 | –
293.15 K, x2 = 0.5871 | 0.268 ± 0.001 | –
293.15 K, x2 = 0.9592 | 0.1028 ± 0.0001 | –
298.15 K, x2 = 0 | 0.1851 ± 0.0001 | 182 ± 73
298.15 K, x2 = 0.2113 | 0.256 ± 0.001 | 92 ± 37
298.15 K, x2 = 0.3052 | 0.292 ± 0.001 | 76 ± 31
298.15 K, x2 = 0.5352 | 0.337 ± 0.001 | –
298.15 K, x2 = 0.8022 | 0.313 ± 0.001 | 26 ± 11
303.15 K, x2 = 0.6984 | 0.434 ± 0.001 | 26 ± 10
308.15 K, x2 = 0.387 | 0.506 ± 0.001 | –
308.15 K, x2 = 0.4282 | 0.511 ± 0.001 | 35 ± 14
308.15 K, x2 = 0.4761 | 0.541 ± 0.001 | –
313.15 K, x2 = 0.3052 | 0.602 ± 0.001 | 35 ± 14
313.15 K, x2 = 0.4761 | 0.669 ± 0.001 | –
313.15 K, x2 = 0.5352 | 0.679 ± 0.001 | –
313.15 K, x2 = 0.9592 | 0.25 ± 0.001 | –
318.15 K, x2 = 0.3052 | 0.733 ± 0.001 | 28 ± 11
318.15 K, x2 = 0.4282 | 0.773 ± 0.001 | 22.1 ± 8.8
318.15 K, x2 = 0.4918 | 0.796 ± 0.001 | 19.5 ± 7.8
323.15 K, x2 = 0 | 0.504 ± 0.001 | 48 ± 19
323.15 K, x2 = 0.3052 | 0.875 ± 0.001 | 23.1 ± 9.2
323.15 K, x2 = 0.4761 | 0.967 ± 0.001 | –
323.15 K, x2 = 0.5352 | 0.977 ± 0.001 | –

CCCC[n+]1ccn(C)c1.O=S(=O)([N-]S(=O)(=O)C(F)(F)F)C(F)(F)F + Nc1ccccc1
100 kPa, x2 = 0
Settings | viscosity [mPa·s]
288.15 K | 78.4 ± 3.5
293.15 K | 61.5 ± 2.7
298.15 K | 49.1 ± 2.2
303.15 K | 39.9 ± 1.8
308.15 K | 33.2 ± 1.5
313.15 K | 27.7 ± 1.2
318.15 K | 23.5 ± 1
323.15 K | 20.13 ± 0.89
328.15 K | 17.39 ± 0.77
333.15 K | 15.2 ± 0.67
